Source: PubChem BioAssay AID248 (DTP/NCI, 2004)
Where “and” joins values, the source holds several entries; their conditions need not be identical. Equal values may be shown once. Toxic doses and inconclusive results are not listed.

System: L1210 leukemia ip in BDF1 mice, survival T/C
Assay: NCI In Vivo Anticancer Drug Screen. Data for tumor model L1210 Leukemia (intraperitoneal) in B6D2F1 (BDF1) mice
Settings: endpoint: mean survival time, higher = longer survival
Procedure, shortened: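 Tumor was transplanted into mice, which were then dosed with test compound or vehicle alone. Survival was recorded for each group, and the treated figure was expressed relative to the control figure.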

[1] = dose: 100.0 mg/kg/injection, schedule: Q01DX009 (ip), vehicle: Klucel (hydroxypropylcellulose) (HPC)
[2] = dose: 200.0 mg/kg/injection, schedule: Q01DX009 (ip), vehicle: Klucel (hydroxypropylcellulose) (HPC)
[3] = dose: 400.0 mg/kg/injection, schedule: Q01DX009 (ip), vehicle: Klucel (hydroxypropylcellulose) (HPC)
[4] = dose: 50.0 mg/kg/injection, schedule: Q01DX001 (ip), vehicle: carboxymethylcellulose (CMC)
[5] = dose: 100.0 mg/kg/injection, schedule: Q01DX001 (ip), vehicle: carboxymethylcellulose (CMC)
[6] = dose: 200.0 mg/kg/injection, schedule: Q01DX001 (ip), vehicle: carboxymethylcellulose (CMC)
[7] = dose: 400.0 mg/kg/injection, schedule: Q01DX001 (ip), vehicle: carboxymethylcellulose (CMC)
[8] = dose: 25.0 mg/kg/injection, schedule: Q01DX009 (ip), vehicle: water
[9] = dose: 50.0 mg/kg/injection, schedule: Q01DX009 (ip), vehicle: Klucel (hydroxypropylcellulose) (HPC)
[10] = dose: 200.0 mg/kg/injection, schedule: Q01DX009 (ip), vehicle: saline with Tween-80

Q: Cc1ccc(NCCN2CCOCC2)c2c(=O)c3ccccc3sc12 was tested. Which T/C (dose: 9.0 mg/kg/injection, schedule: Q01DX Z (ip), vehicle: methylcellulose (MC)) did it give?
A: 92 % of control

Q: What about the T/C (dose: 14.0 mg/kg/injection, schedule: Q01DX Z (ip), vehicle: methylcellulose (MC)) of the same compound?
A: 104 % of control

Q: And the T/C (dose: 21.0 mg/kg/injection, schedule: Q01DX Z (ip), vehicle: methylcellulose (MC))?
A: 97 % of control

Q: What about the T/C (dose: 32.0 mg/kg/injection, schedule: Q01DX Z (ip), vehicle: methylcellulose (MC)) of the same compound?
A: 109 % of control

Q: With N/C(=N\OC(=O)c1ccccc1)c1ccccc1 as the compound, how does the T/C (dose: 50.0 mg/kg/injection, schedule: Q04DX002 (ip), vehicle: Klucel (hydroxypropylcellulose) (HPC)) read?
A: 96 % of control

Q: What about the T/C (dose: 100.0 mg/kg/injection, schedule: Q04DX002 (ip), vehicle: Klucel (hydroxypropylcellulose) (HPC)) of the same compound?
A: 104 % of control

Q: What about the T/C (dose: 200.0 mg/kg/injection, schedule: Q04DX002 (ip), vehicle: Klucel (hydroxypropylcellulose) (HPC)) of the same compound?
A: 93 % of control

Q: With CCOC(Cn1ccc(=O)[nH]c1=O)OCC as the compound, how does the T/C (dose: 100.0 mg/kg/injection, schedule: Q04DX003 (ip), vehicle: saline sonified) read?
A: 109 % of control

Q: And the T/C (dose: 200.0 mg/kg/injection, schedule: Q04DX003 (ip), vehicle: saline sonified)?
A: 96 % of control

Q: What about the T/C (dose: 400.0 mg/kg/injection, schedule: Q04DX003 (ip), vehicle: saline sonified) of the same compound?
A: 105 % of control

Q: NC(CSCc1ccccc1)(CSCc1ccccc1)C(=O)O was tested. Which T/C (dose: 25.0 mg/kg/injection, schedule: Q01DX009 (ip), vehicle: other) did it give?
A: 107 % of control

Q: What about the T/C (dose: 50.0 mg/kg/injection, schedule: Q01DX009 (ip), vehicle: other) of the same compound?
A: 105 % of control

Q: And the T/C (dose: 100.0 mg/kg/injection, schedule: Q01DX009 (ip), vehicle: other)?
A: 100 % of control

Q: And the T/C (dose: 200.0 mg/kg/injection, schedule: Q01DX009 (ip), vehicle: other)?
A: 91 % of control

Q: What about the T/C (dose: 400.0 mg/kg/injection, schedule: Q01DX009 (ip), vehicle: other) of the same compound?
A: 113 % of control

Q: How did the T/C (dose: 9.38 mg/kg/injection, schedule: Q01DX001 (ip), vehicle: saline) turn out when OCCN(Cc1cccnc1)Cc1ccccn1 was run?
A: 94 % of control

Q: What about the T/C (dose: 18.75 mg/kg/injection, schedule: Q01DX001 (ip), vehicle: saline) of the same compound?
A: 100 % of control

Q: O=C(NCCCl)NC(Cc1ccccc1)C(=O)O (stereo not drawn) was tested. Which T/C (dose: 100.0 mg/kg/injection, schedule: Q01DX001 (ip), vehicle: saline with Tween-80) did it give?
A: 94 % of control

Q: What about the T/C (dose: 200.0 mg/kg/injection, schedule: Q01DX001 (ip), vehicle: saline with Tween-80) of the same compound?
A: 94 % of control

Q: And the T/C (dose: 400.0 mg/kg/injection, schedule: Q01DX001 (ip), vehicle: saline with Tween-80)?
A: 91 % of control

Q: For CC(=O)OC1C=CN(C(C)=O)C(SC(C)(C)C)C1OC(C)=O (stereo not drawn), which T/C [1] is on record?
A: 101 % of control

Q: And the T/C [2]?
A: 106 % of control

Q: What about the T/C [3] of the same compound?
A: 100 % of control

Q: Which T/C [4] does the source give for CC1(C)N=C(c2ccccc2)C2C(c3ccc([N+](=O)[O-])cc3)N21 (stereo not drawn) here?
A: 98 % of control

Q: What about the T/C [5] of the same compound?
A: 88 % of control

Q: And the T/C [6]?
A: 93 % of control

Q: And the T/C [7]?
A: 91 % of control

Q: With NC(=S)NN=C1CSSC1 as the compound, how does the T/C (dose: 1.56 mg/kg/injection, schedule: Q01DX009 (ip), vehicle: water) read?
A: 99 % of control

Q: What about the T/C (dose: 3.12 mg/kg/injection, schedule: Q01DX009 (ip), vehicle: water) of the same compound?
A: 96 % of control

Q: And the T/C (dose: 6.25 mg/kg/injection, schedule: Q01DX009 (ip), vehicle: water)?
A: 99 % of control

Q: And the T/C (dose: 12.5 mg/kg/injection, schedule: Q01DX009 (ip), vehicle: water)?
A: 103 % of control

Q: What about the T/C (dose: 12.5 mg/kg/injection, schedule: Q04DX003 (ip), vehicle: water) of the same compound?
A: 95 % of control

Q: What about the T/C [8] of the same compound?
A: 103 % of control

Q: With CSc1ccc([PH+](c2ccc(SC)cc2)c2ccc(SC)cc2)cc1.CSc1ccc([PH+](c2ccc(SC)cc2)c2ccc(SC)cc2)cc1.[Cl][Hg][Cl] as the compound, how does the T/C [9] read?
A: 89 % of control

Q: And the T/C [1]?
A: 92 % of control and 98 % of control

Q: What about the T/C [2] of the same compound?
A: 94 % of control and 103 % of control

Q: Which T/C (dose: 25.0 mg/kg/injection, schedule: Q04DX002 (ip), vehicle: saline with Tween-80) does the source give for CCC(C)C(C=O)(CCN(C)CC)c1cccc2ccccc12 (stereo not drawn) here?
A: 91 % of control

Q: And the T/C (dose: 50.0 mg/kg/injection, schedule: Q04DX002 (ip), vehicle: saline with Tween-80)?
A: 94 % of control

Q: Which results are given for CN(Cc1ccccc1)/N=N/c1nc[nH]c1C(N)=O?
A: T/C (dose: 4.0 mg/kg/injection, schedule: Q01DX009 (ip), vehicle: saline with Tween-80): 98 % of control; T/C (dose: 8.0 mg/kg/injection, schedule: Q01DX009 (ip), vehicle: saline with Tween-80): 103 % of control; T/C (dose: 22.0 mg/kg/injection, schedule: Q01DX009 (ip), vehicle: saline with Tween-80): 98 % of control; T/C [8]: 122 % of control; T/C (dose: 35.0 mg/kg/injection, schedule: Q01DX009 (ip), vehicle: saline with Tween-80): 117 % of control; T/C (dose: 50.0 mg/kg/injection, schedule: Q01DX001 (ip), vehicle: water): 102 % of control; T/C (dose: 50.0 mg/kg/injection, schedule: Q01DX009 (ip), vehicle: saline): 124 % of control; T/C (dose: 50.0 mg/kg/injection, schedule: Q04DX003 (ip), vehicle: water): 105 % of control; T/C (dose: 100.0 mg/kg/injection, schedule: Q01DX001 (ip), vehicle: other): 104 % of control; T/C (dose: 100.0 mg/kg/injection, schedule: Q01DX001 (ip), vehicle: water): 108 % of control; T/C (dose: 100.0 mg/kg/injection, schedule: Q01DX009 (ip), vehicle: acetone): 181 % of control; T/C (dose: 100.0 mg/kg/injection, schedule: Q01DX009 (ip), vehicle: water): 171 % of control and 175 % of control; T/C (dose: 100.0 mg/kg/injection, schedule: Q04DX003 (ip), vehicle: other): 102 % of control; T/C (dose: 200.0 mg/kg/injection, schedule: Q01DX001 (ip), vehicle: other): 108 % of control; T/C (dose: 200.0 mg/kg/injection, schedule: Q01DX001 (ip), vehicle: water): 113 % of control; T/C (dose: 200.0 mg/kg/injection, schedule: Q01DX009 (ip), vehicle: acetone): 150 % of control; T/C [10]: 176 % of control; T/C (dose: 200.0 mg/kg/injection, schedule: Q01DX009 (ip), vehicle: water): 106 % of control and 113 % of control; T/C (dose: 200.0 mg/kg/injection, schedule: Q04DX003 (ip), vehicle: other): 122 % of control; T/C (dose: 400.0 mg/kg/injection, schedule: Q01DX001 (ip), vehicle: other): 112 % of control; T/C (dose: 400.0 mg/kg/injection, schedule: Q01DX009 (ip), vehicle: acetone): 87 % of control; T/C (dose: 400.0 mg/kg/injection, schedule: Q04DX003 (ip), vehicle: other): 155 % of control

Q: Which T/C (dose: 100.0 mg/kg/injection, schedule: Q04DX003 (ip), vehicle: Klucel (hydroxypropylcellulose) (HPC)) does the source give for CCCCCc1cc(O)c(C2CC(C)CCC2C(C)C)c(OC(=O)c2ccc([N+](=O)[O-])cc2[N+](=O)[O-])c1 (stereo not drawn) here?
A: 104 % of control

Q: And the T/C (dose: 200.0 mg/kg/injection, schedule: Q04DX003 (ip), vehicle: Klucel (hydroxypropylcellulose) (HPC))?
A: 88 % of control

Q: And the T/C (dose: 400.0 mg/kg/injection, schedule: Q04DX003 (ip), vehicle: Klucel (hydroxypropylcellulose) (HPC))?
A: 88 % of control

Q: How did the T/C [9] turn out when COc1ccc([N+](=O)[O-])cc1NC(=O)c1ccc(Cl)cc1 was run?
A: 96 % of control

Q: What about the T/C [1] of the same compound?
A: 94 % of control

Q: And the T/C [2]?
A: 95 % of control

Q: What about the T/C [3] of the same compound?
A: 94 % of control

Q: With CCCC(CCCC(=O)O)C(=O)O (stereo not drawn) as the compound, how does the T/C [4] read?
A: 86 % of control

Q: What about the T/C [5] of the same compound?
A: 90 % of control

Q: What about the T/C [6] of the same compound?
A: 92 % of control

Q: And the T/C [7]?
A: 90 % of control

Q: With CCc1c(C=O)[nH]c(=S)n(C)c1=O as the compound, how does the T/C (dose: 100.0 mg/kg/injection, schedule: Q01DX001 (ip), vehicle: Klucel (hydroxypropylcellulose) (HPC)) read?
A: 104 % of control

Q: And the T/C [1]?
A: 108 % of control

Q: And the T/C (dose: 200.0 mg/kg/injection, schedule: Q01DX001 (ip), vehicle: Klucel (hydroxypropylcellulose) (HPC))?
A: 98 % of control

Q: And the T/C [2]?
A: 88 % of control

Q: And the T/C (dose: 400.0 mg/kg/injection, schedule: Q01DX001 (ip), vehicle: Klucel (hydroxypropylcellulose) (HPC))?
A: 101 % of control

Q: And the T/C [3]?
A: 98 % of control

Q: Cc1ccc2c(C)cc(=O)[nH]c2c1 was tested. Which T/C [5] did it give?
A: 102 % of control

Q: What about the T/C (dose: 100.0 mg/kg/injection, schedule: Q01DX009 (ip), vehicle: saline with Tween-80) of the same compound?
A: 102 % of control

Q: And the T/C [6]?
A: 91 % of control

Q: What about the T/C [10] of the same compound?
A: 101 % of control

Q: And the T/C [7]?
A: 105 % of control

Q: And the T/C (dose: 400.0 mg/kg/injection, schedule: Q01DX009 (ip), vehicle: saline with Tween-80)?
A: 106 % of control

Q: Which results are given for CNC(=O)OCC1=CC(=O)C(C)=CC1=O?
A: T/C (dose: 1.56 mg/kg/injection, schedule: Q01DX009 (ip), vehicle: gum acacia): 96 % of control; T/C (dose: 3.12 mg/kg/injection, schedule: Q01DX009 (ip), vehicle: gum acacia): 89 % of control; T/C (dose: 6.25 mg/kg/injection, schedule: Q01DX009 (ip), vehicle: gum acacia): 89 % of control; T/C (dose: 12.5 mg/kg/injection, schedule: Q04DX003 (ip), vehicle: gum acacia): 95 % of control; T/C (dose: 25.0 mg/kg/injection, schedule: Q04DX003 (ip), vehicle: gum acacia): 103 % of control
